Data as given in the CheMixHub ionic liquid set.

Experiment: xn = mol fraction of the nth substance listed

CCCC[n+]1ccn(C)c1.N#C[S-] + CN1CCCC1=O
viscosity [mPa·s], 101 kPa
Conditions	x1 = 0.0009705	x1 = 0.001495	x1 = 0.002117	x1 = 0.002433	x1 = 0.003004	x1 = 0.003507	x1 = 0.004097	x1 = 0.00451
288.15 K	2.139	2.145	2.153	2.158	2.163	2.166	2.172	2.178
298.15 K	1.804	1.808	1.811	1.813	1.821	1.827	1.834	1.843
308.15 K	1.563	1.575	1.582	1.586	1.593	1.604	1.616	1.623
318.15 K	1.295	1.305	1.311	1.317	1.322	1.327	1.337	1.349

C[n+]1ccn(CCCCCn2cc[n+](C)c2)c1.O=S(=O)([N-]S(=O)(=O)C(F)(F)F)C(F)(F)F.O=S(=O)([N-]S(=O)(=O)C(F)(F)F)C(F)(F)F + CN1CCCC1=O
viscosity [mPa·s], 101 kPa
Conditions	293.15 K	303.15 K	313.15 K	323.15 K	333.15 K
x1 = 0.3841	153.6	96	60.8	41.6	25.6
x1 = 0.5551	349	188.8	118.4	76.8	51.2
x1 = 1	1123	557	310	188.8	121.6

CC(=O)[O-].CC[n+]1ccn(C)c1 + CN(CCO)CCO
101 kPa
Conditions	electrical conductivity [S/m]	viscosity [mPa·s]
288.15 K, x1 = 0.2002	0.036	150.1
288.15 K, x1 = 0.4995	0.066	174
293.15 K, x1 = 0.4001	0.071	123.1
298.15 K, x1 = 0.4995	0.112	97.7
303.15 K, x1 = 0.2002	0.065	65.1
303.15 K, x1 = 0.5998	0.171	81.8
303.15 K, x1 = 1	0.358	102.4
308.15 K, x1 = 0.8999	0.384	73.4
313.15 K, x1 = 0.4995	0.229	48.5
313.15 K, x1 = 0.7003	0.343	52.3
313.15 K, x1 = 0.7998	0.401	54.1
318.15 K, x1 = 0.1002	0.051	29.4
318.15 K, x1 = 0.7003	0.426	42.4
318.15 K, x1 = 0.8999	0.598	46.3
318.15 K, x1 = 1	0.724	47.7
323.15 K, x1 = 0.1002	0.063	23.5
323.15 K, x1 = 1	0.883	39
328.15 K, x1 = 0.1002	0.075	18.9
328.15 K, x1 = 0.4995	0.414	26.5
328.15 K, x1 = 0.5998	0.519	27.6
333.15 K, x1 = 0.8999	1.06	25.7
333.15 K, x1 = 1	1.25	26.7
343.15 K, x1 = 0.4001	0.52	14.88
348.15 K, x1 = 0.4995	0.795	13.87
353.15 K, x1 = 0.2002	0.331	8.91
353.15 K, x1 = 0.5998	1.2	12.74
353.15 K, x1 = 0.7998	1.68	–

CC[N+](CC)(CC)CC.[Cl-] + CNCCO
101.3 kPa
Conditions	viscosity [mPa·s]
293.15 K, x1 = 0.1413	23.7
303.15 K, x1 = 0.1114	14.3
308.15 K, x1 = 0.09139	11.4
313.15 K, x1 = 0.1413	10.3
318.15 K, x1 = 0.1413	8.78
323.15 K, x1 = 0.1114	7.1
323.15 K, x1 = 0.1413	7.56
328.15 K, x1 = 0.09139	5.45

CCCCc1n(S(=O)(=O)O)cc[n+]1S(=O)(=O)O.O=C([O-])C(F)(F)F + CO
electrical conductivity [S/m], 101 kPa
Conditions	x1 = 0.0104	x1 = 0.0205	x1 = 0.02551
298.15 K	1.59	2.16	–
308.15 K	–	–	2.28
